Source: patent US5332726A, “Antithrombotic peptides and pseudopeptides” (Rhone-Poulenc Rorer Pharmaceuticals Inc., priority 1992, dated 1994)
Non-standard residues stand in square brackets, D forms with d. Residues, ends and D or L forms follow the SMILES beside them. NMeV = CN[C@H](C(=O)O)C(C)C

How the values were obtained:
platelet aggregation = conditions: cited from earlier work
[1] = target: fixed activated platelets (Homo sapiens, UniProt P05106+P08514); assay: Platelet Aggregation Assay (fibrinogen-mediated aggregation of fixed-activated platelets); format: cell-based; conditions: for IC50: fixed activated platelets, human fibrinogen 250 μg/ml, read-out: Inhibition of Fibrinogen Mediated Platelet Aggregation IC50; for inhibition at 100 µM: read-out: Inhibition of Fibrinogen Mediated Platelet Aggregation % inhibition at 100 μM; for inhibition at 25 µM: read-out: Inhibition of Fibrinogen Mediated Platelet Aggregation % inhibition at 25 μM
Method in brief: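 Activated platelets fixed with 0.50% paraformaldehyde for 30 min at room temperature. They were then pre-incubated 1 min with test compound before aggregation was triggered by human fibrinogen at 250 μg/ml final. Aggregation recorded on an aggregometer.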

[2] = target: thrombin-stimulated platelets (Homo sapiens, UniProt P05106+P08514); assay: Fibrinogen-Binding Assay (125I-fibrinogen binding to platelets); conditions: for IC50: 125I-fibrinogen 0.176 μmol/liter, thrombin-stimulated platelets, read-out: Inhibition of 125I-Fibrinogen Binding to Platelets IC50
thrombin-stimulated platelets, sequence (P08514 32-1039): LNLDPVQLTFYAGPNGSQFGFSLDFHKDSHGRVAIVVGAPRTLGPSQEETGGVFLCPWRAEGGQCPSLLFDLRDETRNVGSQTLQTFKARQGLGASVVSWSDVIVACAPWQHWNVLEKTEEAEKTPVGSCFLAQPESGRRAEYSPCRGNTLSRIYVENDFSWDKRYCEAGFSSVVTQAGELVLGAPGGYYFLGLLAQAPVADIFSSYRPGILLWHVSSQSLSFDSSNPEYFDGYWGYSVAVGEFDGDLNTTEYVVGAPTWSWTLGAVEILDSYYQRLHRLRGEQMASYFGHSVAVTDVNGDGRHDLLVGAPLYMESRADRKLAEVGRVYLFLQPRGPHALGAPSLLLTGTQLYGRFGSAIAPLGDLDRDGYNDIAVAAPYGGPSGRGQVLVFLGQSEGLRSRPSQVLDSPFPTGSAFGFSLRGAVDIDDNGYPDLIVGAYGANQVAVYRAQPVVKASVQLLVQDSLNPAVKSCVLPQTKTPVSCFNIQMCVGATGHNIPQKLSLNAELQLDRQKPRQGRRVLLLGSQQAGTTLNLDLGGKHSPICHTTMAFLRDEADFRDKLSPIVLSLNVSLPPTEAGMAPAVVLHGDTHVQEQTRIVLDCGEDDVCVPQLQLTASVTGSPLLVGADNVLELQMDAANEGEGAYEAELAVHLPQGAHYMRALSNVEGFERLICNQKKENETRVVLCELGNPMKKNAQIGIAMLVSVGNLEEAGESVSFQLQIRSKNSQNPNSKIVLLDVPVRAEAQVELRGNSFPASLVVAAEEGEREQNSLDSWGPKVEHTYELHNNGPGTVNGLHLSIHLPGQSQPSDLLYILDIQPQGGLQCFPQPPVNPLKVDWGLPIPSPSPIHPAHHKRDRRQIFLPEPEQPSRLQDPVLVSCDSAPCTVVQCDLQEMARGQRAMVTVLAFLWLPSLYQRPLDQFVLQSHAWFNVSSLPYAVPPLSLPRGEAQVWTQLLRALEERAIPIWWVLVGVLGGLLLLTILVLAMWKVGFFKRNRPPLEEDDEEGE
thrombin-stimulated platelets, sequence (P05106 27-788): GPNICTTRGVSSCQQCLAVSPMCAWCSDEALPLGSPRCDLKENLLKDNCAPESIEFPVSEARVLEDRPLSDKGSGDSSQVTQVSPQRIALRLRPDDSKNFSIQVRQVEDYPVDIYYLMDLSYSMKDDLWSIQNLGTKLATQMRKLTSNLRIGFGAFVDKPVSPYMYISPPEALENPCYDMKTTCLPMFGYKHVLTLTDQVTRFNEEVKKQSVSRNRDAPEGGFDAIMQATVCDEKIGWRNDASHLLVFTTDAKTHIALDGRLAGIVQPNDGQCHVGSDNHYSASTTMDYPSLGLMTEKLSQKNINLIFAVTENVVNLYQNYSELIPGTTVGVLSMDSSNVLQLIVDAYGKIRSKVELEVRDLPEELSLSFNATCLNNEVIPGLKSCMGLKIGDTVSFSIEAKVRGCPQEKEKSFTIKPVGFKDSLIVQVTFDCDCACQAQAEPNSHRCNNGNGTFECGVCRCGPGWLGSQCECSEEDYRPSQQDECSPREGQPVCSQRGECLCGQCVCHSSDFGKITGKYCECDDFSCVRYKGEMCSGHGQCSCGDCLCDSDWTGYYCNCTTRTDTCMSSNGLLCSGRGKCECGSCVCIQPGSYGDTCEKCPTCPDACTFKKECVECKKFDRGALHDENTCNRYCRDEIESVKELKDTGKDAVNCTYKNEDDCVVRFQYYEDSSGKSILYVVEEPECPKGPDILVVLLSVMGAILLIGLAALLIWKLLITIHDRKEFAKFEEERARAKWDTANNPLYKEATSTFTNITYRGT

fixed activated platelets, sequence (P08514 32-1039): as the sequence (P08514 32-1039) above
fixed activated platelets, sequence (P05106 27-788): as the sequence (P05106 27-788) above

Row | Compound | inhibiting thrombin-induced platelet aggregation (platelet aggregation) | IC50 [1] | inhibition at 100 µM [1] | inhibition at 50 µg/mL ([2]; read-out: Inhibition of 125I-Fibrinogen Binding to Platelets: Inhibited <50% at 50 μg/ml) | inhibition at 25 µM [1] | IC50 [2]
1 | gly-arg-gly-asp-ser | capable of inhibiting thrombin-induced platelet aggregation | – | – | – | – | –
2 | arg-gly-asp-ser | capable of inhibiting thrombin-induced platelet aggregation | – | – | – | – | –
3 | CC(C)[C@@H](C(=O)O)N(C)C(=O)[C@H](CC(=O)O)NC(=O)CNC(=O)[C@@H](N)CCCNC(=N)N [L-arginylglycyl-L-aspartyl-L-(N-methyl)-valine] (H-RGD[NMeV]-OH) | – | 160 µM | 30% | < 50% | – | –
4 | N=C(N)NCCCCCCCCC(=O)N[C@@H](CC(=O)O)C(=O)N[C@@H](CCCNC(=N)N)C(=O)O [9-Guanidinononanoyl-L-aspartyl-L-arginine] | – | 0.26 µM | – | – | 97% | 0.13 µM
5 | CC(C)C[C@H](NC(=O)[C@H](CC(=O)O)NC(=O)CN(C)C(=O)CCCCCNC(=N)N)C(=O)O [6-Guanidinohexanoyl-L-sarcosyl-L-aspartyl-L-leucine] | – | 0.33 µM | – | – | 88% | 0.09 µM
6 | CC(C)[C@H](NC(=O)[C@H](CC(=O)O)NC(=O)[C@@H](N)CCCNC(=N)N)C(=O)O [L-arginyl-L-aspartyl-L-valine] (H-Arg-Asp-Val-OH) | – | 100 µM | 49% | – | – | > 200 µM
7 | CC(C)CNC(=O)[C@H](CC(=O)O)NC(=O)CNC(=O)[C@@H](N)CCCNC(=N)N [L-arginylglycyl-L-aspartyl-α-isobutylamide] | – | 3.6 µM | 89% | – | – | 26.5 µM
8 | CC(C)CNC(=O)[C@H](CC(=O)O)NC(=O)CCCCCCCNC(=N)N [8-Guanidinooctanoyl-L-aspartic acid-α-isobutylamide] | – | 7.8 µM | – | – | 81% | 14.5 µM
